Read-outs that look alike come from different tables or passages of the source.
What was measured:
HCT116 cells = experiment: Antiproliferative potency, 4 h exposure, sulforhodamine B; assay type: cell-based, human; conditions: Homo sapiens, HCT-116, 4 h, HCT116, 4 h exposure
Procedure: Antiproliferative potency of SN30000 and its major metabolites following 4 h exposure of HCT116 cells under aerobic or anoxic conditions. […]
a HCT116 cells, originally from ATCC, were authenticated by short tandem repeat profiling and confir med mycoplasma-free by PCR/ELISA assay . Cells were passaged in Alpha MEM with 5% foetal bovine serum without antibiotics. In vitro cytotoxicity of SN30000 and metabolites was measured as the inhibition of cell proliferation as described previously (Gu et al., 2009). Briefly, cells were exposed to compounds for 4 h under aerobic (20% O2) or anoxic (Bactron anaerobic chamber) conditions and then grown in an aerobic 5% CO 2 incubator for 5 d before staining with sulforhodamine B. IC50 values were deter mined by interpolation (nonlinear regression to the standard Hill equation) as the drug concentration reducing staining to 50% of controls on the same plate. b Values are mean ± SEM for the numb er of independent experiments shown in parentheses.

[1] = Plasma protein binding by equilibrium dialysis; assay type: in vitro ADME; conditions: NIH-III mouse plasma, 37°C, 6 h
Procedure: TABLE 11: Protein binding of SN30000, M14 and M18 at the indicated concentrations in NIH-III mouse plasma, measured by equilibrium dialysisa.
(µM) Percent Protein Bound (Mean ± SD)b […]
a Protein binding was evaluated by equilibrium dialysis using a high throughput plate with 12-14KDa dialysis membrane (HTDialysis, Gales Ferry, CT) as described by Banker et al., 2003, with modification. Briefly, 100 µL samples of plasma containing SN30000 or metabolites (M14 and M18) were dialysed against 100 µL PBS (pH 7.4) in an incubator (Innova-42, New Brunswick Scientific, US ) at 37°C with shaking at 80 rpm for 6 h. To achieve matrix match, 10 µL of blank plasma was added to 90 µL of the PBS sample and 90 µL of PBS was added to 10 µL of the plasma sample. Proteins were precipitated with 3 vol of ice-cold MeCN, the centrifuged supernatants were mixed with 2 vol 45 mM ammonium formate buffer pH 4.5, and 50 µL samples were analysed by HPLC with absorbance […]
bValues are mean and SD for triplicate samples.

[2] = Stability in mouse plasma (QC samples); assay type: physicochemical
From the text: using octa-deuterated internal standards of SN30000, M13 and M14 synthesised as previously reported (Wang et al., 2012). Intra- and inter-day precision (expressed as relative standard deviation (RSD) and accuracy (expressed as percentage of the nominal value) were deter mined by analy sis of replicates (n=6) of low and high quality control (QC) samples on three different days. The lower limit of quantitation (LLOQ) was defined as the lowest concentration providing RSD and accuracy < 20%. Recovery from plasma and liver ho mogenates was tested at the three QC levels. The recoveries were evaluated by comparing extracted samples with blank extracted solutions spiked with analytes of the same amount.
Matrix effects, defined as the change in response due to the presence of other substances in the samples, were evaluated by comparing the analytes diluted into the blank plasma or liver extracted solution with that of the same stock solutions diluted in water. Three different concentration levels (low, medium and high QC) were evaluated by analysing three samples at each level. Accuracy , precision, recovery and matrix effects were all acceptable over the concentration ranges evaluated for plas ma (Supplementary Table 1) and for liver homogenates (Supplementary Table 2).
Stability of the analytes in mouse plasma (Supplementary Table 3) or liver homogenate (Supplementary Table 4) was confirmed during holding of QC samples on ice for up to 2 h under nor mal laboratory lighting, although there was a trend towards loss of SN30000 in plasma samples held in clear microcentrifuge tubes which may reflect the known photosensitivity of the compound (Gu et al., 2014). This loss was reduced by use of red microcentrifuge tubes, and eliminated by black tubes. Stability in both matrices was also confir med for one month storage at -80°C and for three freeze-thaw cycles, while MeOH-deproteinised samples w ere stable for 12 h at 4°C in the autosampler (Supplementary Tables

[3] = i.p. SN30000 186 mg/kg
Procedure: (§1) M18 was quantified by absorbance detection with reference to an external standard calibration curve.
(§2) Concentration-time data were analyzed by non-compartmental analysis using Phoenix WinNonlin (ver 6.4, Build 6.4.0768 Pharsight, United States); all AUC values were extrapolated to infinity using the linear trapezoidal rule.
(§3) SN30000, M14 and M13 were quantified by LC-MS/MS using stable isotope internal standards, while M18 was quantified by absorbance detection using external standard calibration curves.

in vivo = conditions: NIH-III, mouse, in vivo, ip, 186 mg/kg
Procedure: as §1, §2, §3

[4] = plasma deproteinised in 3 vol MeOH, 12 h autosampler at 4°C, nominal SN30000 0.5, M14 0.25, M13 0.1 µM
[5] = plasma deproteinised in 3 vol MeOH, 12 h autosampler at 4°C, nominal SN30000 5, M14 2.5, M13 1 µM
[6] = plasma deproteinised in 3 vol MeOH, 12 h autosampler at 4°C, nominal SN30000 50, M14 25, M13 10 µM
[7] = plasma, 1 month at -80°C, nominal SN30000 5, M14 2.5, M13 1 µM
[8] = plasma, 1 month at -80°C, nominal SN30000 50, M14 25, M13 10 µM
[9] = plasma, 1 h on ice, black vial, nominal SN30000 0.5, M14 0.25, M13 0.1 µM
[10] = plasma, 1 h on ice, black vial, nominal SN30000 5, M14 2.5, M13 1 µM
[11] = plasma, 1 h on ice, black vial, nominal SN30000 50, M14 25, M13 10 µM
[12] = plasma, 1 h on ice, clear vial, nominal SN30000 0.5, M14 0.25, M13 0.1 µM
[13] = plasma, 1 h on ice, clear vial, nominal SN30000 5, M14 2.5, M13 1 µM
[14] = plasma, 1 h on ice, clear vial, nominal SN30000 50, M14 25, M13 10 µM
[15] = plasma, 1 h on ice, red vial, nominal SN30000 0.5, M14 0.25, M13 0.1 µM
[16] = plasma, 1 h on ice, red vial, nominal SN30000 5, M14 2.5, M13 1 µM
[17] = plasma, 1 h on ice, red vial, nominal SN30000 50, M14 25, M13 10 µM
[18] = plasma, 2 h on ice, black vial, nominal SN30000 0.5, M14 0.25, M13 0.1 µM
[19] = plasma, 2 h on ice, black vial, nominal SN30000 5, M14 2.5, M13 1 µM
[20] = plasma, 2 h on ice, black vial, nominal SN30000 50, M14 25, M13 10 µM
[21] = plasma, 2 h on ice, clear vial, nominal SN30000 0.5, M14 0.25, M13 0.1 µM
[22] = plasma, 2 h on ice, clear vial, nominal SN30000 5, M14 2.5, M13 1 µM
[23] = plasma, 2 h on ice, clear vial, nominal SN30000 50, M14 25, M13 10 µM
[24] = plasma, 2 h on ice, red vial, nominal SN30000 0.5, M14 0.25, M13 0.1 µM
[25] = plasma, 2 h on ice, red vial, nominal SN30000 5, M14 2.5, M13 1 µM
[26] = plasma, 2 h on ice, red vial, nominal SN30000 50, M14 25, M13 10 µM
[27] = plasma, three freeze-thaw cycles, nominal SN30000 0.5, M14 0.25, M13 0.1 µM
[28] = plasma, three freeze-thaw cycles, nominal SN30000 5, M14 2.5, M13 1 µM
[29] = plasma, three freeze-thaw cycles, nominal SN30000 50, M14 25, M13 10 µM
[30] = HT29 tumour, tumour-bearing mice
[31] = liver, HT29 tumour-bearing mice

## [O-][n+]1nc(CCCN2CCOCC2)[n+]([O-])c2cc3c(cc21)CCC3 [SN30000, 3-(3-Morpholinopropyl)-7,8-dihydro-6H-indeno[5,6-e][1,2,4]triazine 1,4-dioxide]
HCT116 cells; aerobic (20% O2)
  IC50: 148 ± 20 µM
HCT116 cells; anoxic
  IC50: 1.7 ± 0.4 µM
[1]; 10 µM
  Percent Protein Bound (Mean ± SD): 21.93 ± 0.17%
[1]; 100 µM
  Percent Protein Bound (Mean ± SD): 26.68 ± 0.04%
[2]; [4]
  Bias: -0.12%
  Measured conc: 0.50 µM
[2]; [5]
  Bias: -0.22%
  Measured conc: 4.99 µM
[2]; [6]
  Bias: 7.93%
  Measured conc: 53.97 µM
[2]; plasma, 1 month at -80°C, nominal SN30000 0.5, M14 0.25, M13 0.1 µM
  Measured conc: 0.48 µM
[2]; [7]
  Bias: 1.44%
  Measured conc: 4.92 µM
[2]; [8]
  Bias: 2.04%
  Measured conc: 53.90 µM
[2]; [9]
  Bias: -0.80%
  Measured conc: 0.50 µM
[2]; [10]
  Bias: -7.17%
  Measured conc: 4.64 µM
[2]; [11]
  Bias: 5.03%
  Measured conc: 52.5 µM
[2]; [12]
  Bias: -7.83%
  Measured conc: 0.46 µM
[2]; [13]
  Bias: -7.91%
  Measured conc: 4.60 µM
[2]; [14]
  Bias: -7.21%
  Measured conc: 46.39 µM
[2]; [15]
  Bias: -3.33%
  Measured conc: 0.48 µM
[2]; [16]
  Bias: -7.29%
  Measured conc: 4.64 µM
[2]; [17]
  Bias: -4.85%
  Measured conc: 47.57 µM
[2]; [18]
  Bias: 1.31%
  Measured conc: 0.51 µM
[2]; [19]
  Bias: 0.11%
  Measured conc: 5.01 µM
[2]; [20]
  Bias: 2.32%
  Measured conc: 51.16 µM
[2]; [21]
  Bias: -14.4%
  Measured conc: 0.43 µM
[2]; [22]
  Bias: -12.3%
  Measured conc: 4.38 µM
[2]; [23]
  Bias: -14.9%
  Measured conc: 42.53 µM
[2]; [24]
  Bias: -10.09%
  Measured conc: 0.45 µM
[2]; [25]
  Bias: -12.57%
  Measured conc: 4.37 µM
[2]; [26]
  Bias: -8.13%
  Measured conc: 45.94 µM
[2]; [27]
  Bias: 0.56%
  Measured conc: 0.50 µM
[2]; [28]
  Bias: -2.87%
  Measured conc: 4.86 µM
[2]; [29]
  Bias: 6.72%
  Measured conc: 53.36 µM
[3]; [30]
  AUC (extrapolated to infinity): 111 µmol·h/kg
  Cmax: 69.9 ± 12.1 µmol/kg
[3]; brain, non-tumour-bearing mice
  AUC (extrapolated to infinity): 158 µmol·h/kg
  Cmax: 217 ± 12 µmol/kg
[3]; [31]
  AUC (extrapolated to infinity): 164 µmol·h/kg
  Cmax: 172 ± 8 µmol/kg
[3]; liver, non-tumour-bearing mice
  AUC (extrapolated to infinity): 147 µmol·h/kg
  Cmax: 164 ± 38 µmol/kg
[3]; plasma, HT29 tumour-bearing mice
  AUC (extrapolated to infinity): 159 µmol·h/kg
[3]; plasma, non-tumour-bearing mice
  AUC (extrapolated to infinity): 156 µmol·h/kg
In vivo
  Tmax: ≤ 5 min
In vivo; i.p. SN30000 186 mg/kg, plasma, HT29 tumour-bearing mice
  Cmax: 217 ± 18 µM
In vivo; i.p. SN30000 186 mg/kg, plasma, non-tumour-bearing mice
  Cmax: 210 ± 9 µM
In vivo; Elimination half-life, i.p. SN30000 186 mg/kg, all tissues except tumors
  half-life: ~30 min
In vivo; Terminal T1/2, i.p. SN30000 186 mg/kg, HT29 tumour, tumour-bearing mice
  half-life: 36.2 min
In vivo; Terminal T1/2, i.p. SN30000 186 mg/kg, brain, non-tumour-bearing mice
  half-life: 26.4 min
In vivo; Terminal T1/2, i.p. SN30000 186 mg/kg, liver, HT29 tumour-bearing mice
  half-life: 35.7 min
In vivo; Terminal T1/2, i.p. SN30000 186 mg/kg, liver, non-tumour-bearing mice
  half-life: 44.3 min
In vivo; Terminal T1/2, i.p. SN30000 186 mg/kg, plasma, HT29 tumour-bearing mice
  half-life: 33.9 min
In vivo; Terminal T1/2, i.p. SN30000 186 mg/kg, plasma, non-tumour-bearing mice
  half-life: 32.7 min
